Earlier results as cited in publication PMC10572743 (International Journal of Molecular Sciences, 2023).

Tested on: TNF-α production in PBMC stimulated with LPS
Conditions: previous research; read-out: PMBC-LPS/TNFα; cited from earlier work

For COc1ccc2ccc3nnn(CCCCO)c3c2c1 [B], which IC50 is on record?
The IC50 was 7.9 µM.

For COc1ccc(Cn2nnc3ccc4ccc(OC)cc4c32)cc1 [C], which IC50 is on record?
Its IC50 is 2.2 µM.
